Results: patent publication US20230017045A1, “PYRIDINE AND PYRIMIDINE CARBOXYLATE HERBICIDES AND METHODS OF USE THEREOF” (Dow AgroSciences LLC, priority 2017, published 2023)
Read-outs that look alike come from different tables or passages of the source.

System: test plant species
Test: Post-emergent herbicidal activity test (greenhouse, foliar spray, visual growth reduction)
Format: in vivo
Details: post-emergence, 336 h, 140 g ai/ha
Method in brief: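 Visual percent injury (0-100) rated 14 d after treatment, relative to nontreated and solvent-blank plants. Test plants at first or second true leaf stage received an overhead track-sprayer application at 187 L/ha. Compounds were formulated in aqueous acetone/DMSO carrier containing crop oil concentrate and X-77 surfactant.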

[1] = ALOMY: blackgrass (Alopecurus myosuroides), 14 days after application, read-out: Visual Growth Reduction (%) 14 Days After Application, ALOMY
[2] = AMARE: redroot pigweed (Amaranthus retroflexus), 14 days after application, read-out: Visual Growth Reduction (%) 14 Days After Application, AMARE
[3] = AVEFA: wild oat (Avena fatua), 14 days after application, read-out: Visual Growth Reduction (%) 14 Days After Application, AVEFA
[4] = CHEAL: lambsquarters (Chenopodium album), 14 days after application, read-out: Visual Growth Reduction (%) 14 Days After Application, CHEAL
[5] = CIRAR: canada thistle (Cirsium arvense), 14 days after application, read-out: Visual Growth Reduction (%) 14 Days After Application, CIRAR
[6] = CYPES: yellow nutsedge (Cyperus esculentus), 14 days after application, read-out: Visual Growth Reduction (%) 14 Days After Application, CYPES
[7] = DIGSA: crabgrass (Digitaria sanguinalis), 14 days after application, read-out: Visual Growth Reduction (%) 14 Days After Application, DIGSA
[8] = ECHCG: barnyardgrass (Echinochloa crus-galli), 14 days after application, read-out: Visual Growth Reduction (%) 14 Days After Application, ECHCG
[9] = IPOHE: ivy-leaf morning glory (Ipomoea hederacea), 14 days after application, read-out: Visual Growth Reduction (%) 14 Days After Application, IPOHE
[10] = KCHSC: kochia (Bassia scoparia), 14 days after application, read-out: Visual Growth Reduction (%) 14 Days After Application, KCHSC
[11] = ORYSA: rice (Oryza sativa), 14 days after application, read-out: Visual Growth Reduction (%) 14 Days After Application, ORYSA
[12] = SETFA: giant foxtail (Setaria faberi), 14 days after application, read-out: Visual Growth Reduction (%) 14 Days After Application, SETFA
[13] = SORVU: grain sorghum (Sorghum vulgare), 14 days after application, read-out: Visual Growth Reduction (%) 14 Days After Application, SORVU
[14] = STEME: common chickweed (Stellaria media), 14 days after application, read-out: Visual Growth Reduction (%) 14 Days After Application, STEME
[15] = TRZAS: wheat, spring (Triticum aestivum), 14 days after application, read-out: Visual Growth Reduction (%) 14 Days After Application, TRZAS
[16] = blackgrass (Alopecurus myosuroides), 14 Days After Application, read-out: Visual Growth Reduction (%) ALOMY
[17] = canada thistle (Cirsium arvense), 14 Days After Application, read-out: Visual Growth Reduction (%) CIRAR
[18] = crabgrass (Digitaria sanguinalis), 14 Days After Application, read-out: Visual Growth Reduction (%) DIGSA
[19] = lambsquarters (Chenopodium album), 14 Days After Application, read-out: Visual Growth Reduction (%) CHEAL
[20] = redroot pigweed (Amaranthus retroflexus), 14 Days After Application, read-out: Visual Growth Reduction (%) AMARE
[21] = wild oat (Avena fatua), 14 Days After Application, read-out: Visual Growth Reduction (%) AVEFA
[22] = yellow nutsedge (Cyperus esculentus), 14 Days After Application, read-out: Visual Growth Reduction (%) CYPES

Row | SMILES | pest or weed control at 140 g/ha [1] [%] | pest or weed control at 140 g/ha [2] [%] | pest or weed control at 140 g/ha [3] [%] | pest or weed control at 140 g/ha [4] [%] | pest or weed control at 140 g/ha [5] [%] | pest or weed control at 140 g/ha [6] [%] | pest or weed control at 140 g/ha [7] [%] | pest or weed control at 140 g/ha [8] [%] | pest or weed control at 140 g/ha [9] [%] | pest or weed control at 140 g/ha [10] [%] | pest or weed control at 140 g/ha [11] [%] | pest or weed control at 140 g/ha [12] [%] | pest or weed control at 140 g/ha [13] [%] | pest or weed control at 140 g/ha [14] [%] | pest or weed control at 140 g/ha [15] [%] | other results
1 | COCC(F)(F)c1ccc(-c2ccc(Cl)c(C(=O)O)n2)c(Cl)c1 [F179, 3-chloro-6-(2-chloro-4-(1,1-difluoro-2-methoxyethyl)phenyl)picolinic acid] | 0 to 29 | 60 to 74 | 0 to 29 | 0 to 29 | 0 to 29 | 0 to 29 | 0 to 29 | 0 to 29 | 95 to 100 | 60 to 74 | 0 to 29 | 0 to 29 | 0 to 29 | 0 to 29 | 0 to 29 | 
2 | COC(=O)c1cc2c(c(-c3nc(C(=O)OC)c(Cl)cc3F)c1)OC(F)(F)O2 [F244, Methyl 3-chloro-6-(2,2-difluoro-6-(methoxycarbonyl)benzo[d][1,3]dioxol-4-yl)-5-fluoropicolinate] |  |  |  |  |  |  |  | 0 to 29 | 0 to 29 | 0 to 29 | 0 to 29 | 0 to 29 | 0 to 29 | 0 to 29 | 0 to 29 | pest or weed control at 140 g/ha [16]: 0 to 29%; pest or weed control at 140 g/ha [17]: 0 to 29%; pest or weed control at 140 g/ha [18]: 0 to 29%; pest or weed control at 140 g/ha [19]: 60 to 74%; pest or weed control at 140 g/ha [20]: 0 to 29%; pest or weed control at 140 g/ha [21]: 0 to 29%; pest or weed control at 140 g/ha [22]: 0 to 29%
3 | COC(=O)c1nc(-c2ccc(C=O)c(F)c2OC)c(F)cc1Cl [F357, methyl 3-chloro-5-fluoro-6-(3-fluoro-4-formyl-2-methoxyphenyl)picolinate] |  |  |  |  |  |  |  | 0 to 29 | 0 to 29 | 0 to 29 | 0 to 29 | 0 to 29 | 0 to 29 | 0 to 29 | 0 to 29 | pest or weed control at 140 g/ha [16]: 0 to 29%; pest or weed control at 140 g/ha [17]: 0 to 29%; pest or weed control at 140 g/ha [18]: 0 to 29%; pest or weed control at 140 g/ha [19]: 0 to 29%; pest or weed control at 140 g/ha [20]: 0 to 29%; pest or weed control at 140 g/ha [21]: 0 to 29%; pest or weed control at 140 g/ha [22]: 0 to 29%
4 | O=C(O)c1nc(-c2ccc3occc3c2)c(F)cc1Cl [F198, 6-(Benzofuran-5-yl)-3-chloro-5-fluoropicolinic acid] | 0 to 29 | 0 to 29 | 0 to 29 | 0 to 29 | 0 to 29 | 0 to 29 | 0 to 29 | 0 to 29 | 60 to 74 | 0 to 29 | 0 to 29 | 0 to 29 | 0 to 29 | 0 to 29 | 0 to 29 | 
5 | COC(=O)c1nc(-c2ccc3cc[nH]c3c2F)ccc1Cl [F69, Methyl 3-chloro-6-(7-fluoro-1H-indol-6-yl)picolinate] | 0 to 29 | 0 to 29 | 0 to 29 | 0 to 29 | 0 to 29 | 0 to 29 | 0 to 29 | 0 to 29 | 0 to 29 |  | 0 to 29 |  | 0 to 29 | 0 to 29 |  | 
6 | COC(=O)c1nc(-c2ccc(C(F)(F)F)c(/C=N/N(C)C)c2Cl)ccc1Cl [F142, Methyl (E)-3-chloro-6-(2-chloro-3-((2,2-dimethylhydrazono)methyl)-4-(trifluoromethyl)phenyl)picolinate] | 0 to 29 | 60 to 74 | 0 to 29 | 30 to 44 | 0 to 29 | 0 to 29 | 0 to 29 | 0 to 29 | 60 to 74 | 0 to 29 | 0 to 29 | 0 to 29 | 60 to 74 | 0 to 29 | 0 to 29 | 
7 | COC(=O)c1nc(-c2ccc(Cl)c3c2OC(F)(F)O3)ccc1Cl [F68, Methyl 3-chloro-6-(7-chloro-2,2-difluorobenzo[d] [1,3]dioxol-4-yl)picolinate] | 0 to 29 | 0 to 29 | 0 to 29 | 0 to 29 | 0 to 29 |  | 0 to 29 | 0 to 29 | 0 to 29 | 0 to 29 | 0 to 29 | 0 to 29 | 0 to 29 | 0 to 29 |  | 
8 | COC(=O)c1nc(-c2ccc(C#N)cc2)c(F)cc1Cl [F168, Methyl 3-chloro-6-(4-cyanophenyl)-5-fluoropicolinate] | 0 to 29 | 30 to 44 | 0 to 29 | 45 to 59 | 0 to 29 | 0 to 29 | 60 to 74 | 30 to 44 | 60 to 74 | 0 to 29 | 0 to 29 | 30 to 44 | 30 to 44 | 0 to 29 | 0 to 29 | 
9 | C#Cc1cc(Cl)c(C(=O)OC)nc1-c1ccc(C(F)(F)F)cc1Cl [F4, Methyl 3-chloro-6-(2-chloro-4-(trifluoromethyl)phenyl)-5-ethynylpicolinate] | 0 to 29 | 0 to 29 | 0 to 29 | 85 to 94 | 75 to 84 | 0 to 29 | 0 to 29 |  |  |  |  |  |  |  |  | pest or weed control at 140 g/ha (barnyardgrass (Echinochloa crus-galli), 14 Days After Application, read-out: Visual Growth Reduction (%) ECHCG): 0 to 29%; pest or weed control at 140 g/ha (common chickweed (Stellaria media), 14 Days After Application, read-out: Visual Growth Reduction (%) STEME): 0 to 29%; pest or weed control at 140 g/ha (giant foxtail (Setaria faberi), 14 Days After Application, read-out: Visual Growth Reduction (%) SETFA): 0 to 29%; pest or weed control at 140 g/ha (ivy-leaf morning glory (Ipomoea hederacea), 14 Days After Application, read-out: Visual Growth Reduction (%) IPOHE): 60 to 74%; pest or weed control at 140 g/ha (johnsongrass (Sorghum vulgare), 14 Days After Application, read-out: Visual Growth Reduction (%) SORVU): 30 to 44%; pest or weed control at 140 g/ha (kochia (Bassia scoparia), 14 Days After Application, read-out: Visual Growth Reduction (%) KCHSC): 0 to 29%; pest or weed control at 140 g/ha (rice (Oryza sativa), 14 Days After Application, read-out: Visual Growth Reduction (%) ORYSA): 0 to 29%; pest or weed control at 140 g/ha (wheat, spring (Triticum aestivum), 14 Days After Application, read-out: Visual Growth Reduction (%) TRZAS): 0 to 29%
